Numbers after ± are expanded uncertainties.
Assay: molar heat capacity at constant pressure; xn = mol fraction of the nth substance listed
Conditions: 293.15 K, Liquid, Flow calorimetry

## C1CCCCC1 [cyclohexane] + CCCCO
100 kPa, x2 = 0
  molar heat capacity at constant pressure: 154.7 ± 1.6 J/K/mol
100 kPa, x2 = 0.1013
  molar heat capacity at constant pressure: 164.6 ± 1.7 J/K/mol
100 kPa, x2 = 0.2003
  molar heat capacity at constant pressure: 166.7 ± 1.7 J/K/mol
100 kPa, x2 = 0.3002
  molar heat capacity at constant pressure: 168.6 ± 1.7 J/K/mol
100 kPa, x2 = 0.4013
  molar heat capacity at constant pressure: 170.9 ± 1.7 J/K/mol
100 kPa, x2 = 0.4997
  molar heat capacity at constant pressure: 171.2 ± 1.7 J/K/mol
100 kPa, x2 = 0.6002
  molar heat capacity at constant pressure: 171.4 ± 1.7 J/K/mol
100 kPa, x2 = 0.6999
  molar heat capacity at constant pressure: 172.1 ± 1.7 J/K/mol
100 kPa, x2 = 0.7998
  molar heat capacity at constant pressure: 172.2 ± 1.7 J/K/mol
100 kPa, x2 = 0.8999
  molar heat capacity at constant pressure: 172.8 ± 1.7 J/K/mol
5000 kPa, x2 = 0
  molar heat capacity at constant pressure: 153.8 ± 1.6 J/K/mol
5000 kPa, x2 = 0.1013
  molar heat capacity at constant pressure: 163.3 ± 1.7 J/K/mol
5000 kPa, x2 = 0.2003
  molar heat capacity at constant pressure: 165.3 ± 1.7 J/K/mol
5000 kPa, x2 = 0.3002
  molar heat capacity at constant pressure: 167.1 ± 1.7 J/K/mol
5000 kPa, x2 = 0.4013
  molar heat capacity at constant pressure: 169.5 ± 1.7 J/K/mol
5000 kPa, x2 = 0.4997
  molar heat capacity at constant pressure: 169.7 ± 1.7 J/K/mol
5000 kPa, x2 = 0.6002
  molar heat capacity at constant pressure: 170.2 ± 1.7 J/K/mol
5000 kPa, x2 = 0.6999
  molar heat capacity at constant pressure: 170.6 ± 1.7 J/K/mol
5000 kPa, x2 = 0.7998
  molar heat capacity at constant pressure: 171 ± 1.7 J/K/mol
5000 kPa, x2 = 0.8999
  molar heat capacity at constant pressure: 171.9 ± 1.7 J/K/mol
10000 kPa, x2 = 0
  molar heat capacity at constant pressure: 152.5 ± 1.5 J/K/mol
10000 kPa, x2 = 0.1013
  molar heat capacity at constant pressure: 161.2 ± 1.6 J/K/mol
10000 kPa, x2 = 0.2003
  molar heat capacity at constant pressure: 163.5 ± 1.7 J/K/mol
10000 kPa, x2 = 0.3002
  molar heat capacity at constant pressure: 165.4 ± 1.7 J/K/mol
10000 kPa, x2 = 0.4013
  molar heat capacity at constant pressure: 167.7 ± 1.7 J/K/mol
10000 kPa, x2 = 0.4997
  molar heat capacity at constant pressure: 168.2 ± 1.7 J/K/mol
10000 kPa, x2 = 0.6002
  molar heat capacity at constant pressure: 168.6 ± 1.7 J/K/mol
10000 kPa, x2 = 0.6999
  molar heat capacity at constant pressure: 169.4 ± 1.7 J/K/mol
10000 kPa, x2 = 0.7998
  molar heat capacity at constant pressure: 169.5 ± 1.7 J/K/mol
10000 kPa, x2 = 0.8999
  molar heat capacity at constant pressure: 170.4 ± 1.7 J/K/mol
15000 kPa, x2 = 0
  molar heat capacity at constant pressure: 150.5 ± 1.5 J/K/mol
15000 kPa, x2 = 0.1013
  molar heat capacity at constant pressure: 159.1 ± 1.6 J/K/mol
15000 kPa, x2 = 0.2003
  molar heat capacity at constant pressure: 161 ± 1.6 J/K/mol
15000 kPa, x2 = 0.3002
  molar heat capacity at constant pressure: 163.4 ± 1.7 J/K/mol
15000 kPa, x2 = 0.4013
  molar heat capacity at constant pressure: 165.5 ± 1.7 J/K/mol
15000 kPa, x2 = 0.4997
  molar heat capacity at constant pressure: 165.9 ± 1.7 J/K/mol
15000 kPa, x2 = 0.6002
  molar heat capacity at constant pressure: 166.3 ± 1.7 J/K/mol
15000 kPa, x2 = 0.6999
  molar heat capacity at constant pressure: 168 ± 1.7 J/K/mol
15000 kPa, x2 = 0.7998
  molar heat capacity at constant pressure: 168.3 ± 1.7 J/K/mol
15000 kPa, x2 = 0.8999
  molar heat capacity at constant pressure: 169.1 ± 1.7 J/K/mol
20000 kPa, x2 = 0
  molar heat capacity at constant pressure: 149.7 ± 1.5 J/K/mol
20000 kPa, x2 = 0.1013
  molar heat capacity at constant pressure: 157.5 ± 1.6 J/K/mol
20000 kPa, x2 = 0.2003
  molar heat capacity at constant pressure: 159.3 ± 1.6 J/K/mol
20000 kPa, x2 = 0.3002
  molar heat capacity at constant pressure: 161.7 ± 1.6 J/K/mol
20000 kPa, x2 = 0.4013
  molar heat capacity at constant pressure: 164.4 ± 1.7 J/K/mol
20000 kPa, x2 = 0.4997
  molar heat capacity at constant pressure: 164.9 ± 1.7 J/K/mol
20000 kPa, x2 = 0.6002
  molar heat capacity at constant pressure: 164.8 ± 1.7 J/K/mol
20000 kPa, x2 = 0.6999
  molar heat capacity at constant pressure: 167.1 ± 1.7 J/K/mol
20000 kPa, x2 = 0.7998
  molar heat capacity at constant pressure: 167.1 ± 1.7 J/K/mol
20000 kPa, x2 = 0.8999
  molar heat capacity at constant pressure: 167.7 ± 1.7 J/K/mol
25000 kPa, x2 = 0
  molar heat capacity at constant pressure: 147.7 ± 1.5 J/K/mol
25000 kPa, x2 = 0.1013
  molar heat capacity at constant pressure: 155.9 ± 1.6 J/K/mol
25000 kPa, x2 = 0.2003
  molar heat capacity at constant pressure: 157.8 ± 1.6 J/K/mol
25000 kPa, x2 = 0.3002
  molar heat capacity at constant pressure: 160.3 ± 1.6 J/K/mol
25000 kPa, x2 = 0.4013
  molar heat capacity at constant pressure: 162.8 ± 1.6 J/K/mol
25000 kPa, x2 = 0.4997
  molar heat capacity at constant pressure: 163.1 ± 1.6 J/K/mol
25000 kPa, x2 = 0.6002
  molar heat capacity at constant pressure: 163.4 ± 1.7 J/K/mol
